Source: US7238340B1, “Monoamine, diamide, thiol-containing metal chelating agents” (CIS bio international, priority 1991, dated 2007)
Like-named read-outs stand apart in the source and are kept apart here. Starred links: 1 amine or outer side, 2 acyl side, 3 side chain; linkers in the order of their positions; H or OH if unused. Positions of bridges follow the written chain, without caps; N, C: chain ends. Non-standard residues stand in square brackets, D forms with d. Residues, ends and D or L forms follow the SMILES beside them. Chains are numbered I, II in the order given. No end group written: not given here. *: point of attachment. Phe(4-Cl) = N[C@@H](Cc1ccc(Cl)cc1)C(=O)O; d2Nal = N[C@H](Cc1ccc2ccccc2c1)C(=O)O; εLys = N[C@@H](CCCCN[*:1])C(=O)[*:2]; Propyl(3-NH2) = NCCC*; βAla = NCCC(=O)O

Columns and labels:
somatostatin receptor = molecular target: T1, somatostatin receptor (Rattus norvegicus, UniProt P30680); assay: Inhibition of [125I-Tyr11]somatostatin-14 binding to AR42J rat pancreatic tumor cell membranes; conditions: [125I-Tyr11]somatostatin-14 0.5 nM, 25 min at 30° C.
T1 construct: endogenous in cells; host or cells: AR42J rat pancreatic tumor cells (membrane preparation)
Method: The rat pancreatic tumor cell line AR42J expressing the somatostatin receptor was cultured in Dulbecco's modified essential media (DMEM) supplemented with 10% fetal calf serum (FCS) and 8 mM glutamine in a humidified 5% CO2 atmosphere at 37° C. Harvested cells were homogenized in cold buffer (50 mM Tris-HCl, pH 7.4), and the homogenate was then centrifuged at 39,000 g for 10 min at 4° C. Pellets were washed once with buffer and then resuspended in ice-cold 10 mM Tris-HCl buffer (pH 7.4). Equal aliquots of this cell membrane preparation were then incubated with [^125I-Tyr^11]somatostatin-14 (Amersham, Arlington Heights, Ill.) at a final concentration of 0.5 nM at 750,000 cpm/mL, specific activity 2000Ci/mmol and either a peptide or peptide-rhenium complex of the invention (at a final concentration ranging from […] in 50 mM HEPES buffer, pH 7.4, containing 1% bovine serum albumin, 5 mM MgCl2, 0.02 mg/mL bacitracin, 0.02 mg/mL phenylmethyl-sulfonylfluoride and 200,000 IU Trasylol) for 25 min at 30° C.
After incubation, this membrane mixture was filtered through a polyethyleneimine-washed GC/F filter (Whatman Ltd., Maidstone, England) using a filtration manifold, and the residue remaining on the filter was washed three times with 5 mL cold HEPES buffer. The filter and a sample of the filter washings were then counted on a gamma counter. […]

[1] = tested on: fresh human platelet-rich plasma; assay: Platelet aggregation inhibition assay (ADP-induced); assay type: cell-based
Method: Platelet aggregation studies were performed essentially as described by Zucker (1989, Methods in Enzymol. 169: 117–133). Briefly, platelet aggregation was assayed with or without putative platelet aggregation inhibitory compounds using fresh human platelet-rich plasma, comprising 300,000 platelets per microlitre. Platelet aggregation was induced by the addition of a solution of adenosine diphosphate to a final concentration of 10 to 15 micromolar, and the extent of platelet aggregation monitored using a Bio/Data aggregometer (Bio/Data Corp., Horsham, Pa.). The concentrations of platelet aggregation inhibitory compounds used were varied from 0.1 to 500 μg/mL. The concentration of inhibitor that reduced the extent of platelet aggregation by 50% (defined as the IC50) was determined from plots of inhibitor concentration versus extent of platelet aggregation. An inhibition curve for peptide RGDS was determined for each batch of platelets tested as a positive control.

thrombus [2] = assay: In vivo imaging of deep vein thrombosis with Tc-99m labeled thrombus targeting peptide, canine model; conditions: Tc-99m labeled peptide, i.v., dog
Text: (§1) Mongrel dogs (25–35 lb., fasted overnight) were sedated with a combination of ketamine and aceprozamine intramuscularly and then anesthetized with sodium pentabarbital intravenously. In each animal, an 18-gauge angiocath was inserted in the distal half of the right femoral vein and a 5 mm or 8 mm Dacron®-entwined stainless steel embolization coil (Cook Co., Bloomington Ind.) was placed in the femoral vein at approximately mid-femur. The catheter was removed, the wound sutured and the placement of the coil documented by X-ray. The animals were then allowed to recover overnight.
(§2) One day following coil placement, each animal was re-anesthetized, intravenous saline drips placed in each foreleg and a urinary bladder catheter inserted to collect urine. The animal was placed supine under a gamma camera equipped with a low-energy, all purpose collimator and photopeaked for Tc-99m. […] The second line was maintained for blood collection.
(§3) Gamma camera imaging was started simultaneously with injection. Anterior images over the heart were acquired as a dynamic study (10 sec image acquisitions) over the first 10 min, and then as static images at 1, 2, 3 and 4h post-injection. Anterior images over the legs were acquired for 500,000 counts or 20 min (whichever is shorter), at approximately 10–20 min, and at approximately 1, 2, 3 and 4h post-injection. Leg images were collected with a lead shield placed over the bladder.
(§4) Following collection of the final image, each animal was deeply anesthetized with pentobarbital. Two blood samples were collected using a heparinized syringe followed by a euthanizing dose of saturated potassium chloride solution administered by intercardiac or bolus intravenous injection. […] The thrombus, coil and coil Dacron fibres were then dissected free of the vessel. The thrombus, saline-washed vessel samples, coil and coil Dacron® fibres were separated, and each sample was placed in a pre-weighed test tube. The samples were weighed and counted in a gamma well counter in the Tc-99m channel, along with known fractions of the injected doses.
(§5) Fresh thrombus weight, percent injected dose (% ID)/g in the thrombus and blood obtained just prior to euthanasia and thrombus/blood and thrombus/muscle ratios were determined. From the computer-stored images, thrombus/background ratios were determined by analysis of the counts/pixel measured in regions-of-interest (ROI) drawn over the thrombus and adjacent muscle.

thrombus [3] = conditions: dog, in vivo, iv
Text: as §1, §2, §3, §4, §5

[4] = tested on: Escherichia coli infected muscle; design: species or system New Zealand White (NZW) rabbits; conditions: rabbit, in vivo
Method: New Zealand White (NZW) rabbits of both sexes and weighing 2–3 kg were innoculated intramuscularly in the left calf with a potent strain of Escherichia coli. After 24 hours, the animals were sedated by intramuscular injection of ketamine and xylazine and then injected with Tc-99m labeled infection targeting agent (2–10mCi, <150 μg). The animals were then positioned supine in the field of view of a gamma cammera (LEAP collimator/photopeaked for Tc-99m) to be imaged. The animals were imaged over the first hour post-injection, and then at approximately 1 hour intervals for the next 3 hours. Animals were allowed to recover between image acquisiitons and re-anesthetized as needed.
Upon completion of the final imaging, each animal was sacrificed with an intravenous overdose of sodium pentobarbital, then dissected to obtain samples of blood and of infected and control tissue. Tissue samples were weighed and counted using a gamma radition counter; a standard amount the injected dose was counted in parallel with each sample as a control.

[5] = tested on: CA20948 rat pancreatic tumor; design: species or system Lewis rats; conditions: in vivo, iv
Method: In vivo imaging of somatostatin receptors expressed by rat tumor cells was performed essentially as described by Bakker et al. (1991, Life Sciences 49: 1593–1601).
CA20948 rat pancreatic tumor cells, thawed from frozen harvested tumor brei, were implanted intramuscularly into the right hind thigh of 6 week old Lewis rats in a suspension of 0.05 to 0.1 mL/animal. The tumors were allowed to grow to approximately 0.5 to 2 g, harvested, and tumor brei was used to implant a second, naive set of Lewis rats. Passaging in this fashion was repeated to generate successive generations of tumor-bearing animals. The tumor-bearing animals used for the in vivo studies were usually from the third to fifth passage and carried 0.2 to 2 g tumors.
For studies of the specificity of radiotracer localization in the tumors, selected animals were given an subcutaneous SSTR-blocking dose (4 mg/kg) of octreotide 30 minutes prior to injection of the radiotracer.
Third- to fifth-passage CA20948 tumor-bearing Lewis rats were restrained and injected intravenously via the dorsal tail vein with a dose of 0.15–0.20 mCi of a ^99mTc-labeled SSTR targeting imaging agent of the invention (corresponding to 3 to 8 μg peptide in 0.2 to 0.4 mL).
At selected times, the animals were sacrificed by cervical dislocation and selected necropsy was performed. Harvested tissue samples were weighed and counted along with an aliquot of the injected dose in a gamma well-counter.

[6] = ADP 10 to 15 micromolar, human platelet-rich plasma, read-out: IC50

T1 sequence (P30680 whole entry): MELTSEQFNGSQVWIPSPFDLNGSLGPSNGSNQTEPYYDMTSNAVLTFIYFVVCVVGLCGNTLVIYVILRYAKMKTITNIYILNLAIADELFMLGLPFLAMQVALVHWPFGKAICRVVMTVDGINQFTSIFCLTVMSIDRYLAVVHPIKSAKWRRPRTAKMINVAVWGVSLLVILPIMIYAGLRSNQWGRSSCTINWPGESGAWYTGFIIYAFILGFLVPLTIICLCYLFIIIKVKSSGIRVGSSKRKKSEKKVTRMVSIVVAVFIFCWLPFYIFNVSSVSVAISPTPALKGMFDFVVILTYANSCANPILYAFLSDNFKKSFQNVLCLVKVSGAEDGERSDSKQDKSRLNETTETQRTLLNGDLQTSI

With CC(=O)N[C@H](Cc1ccc2ccccc2c1)C(=O)N[C@@H](Cc1ccc(Cl)cc1)C(=O)N[C@@H](Cc1ccc(O)cc1)C(=O)N[C@H](Cc1c[nH]c2ccccc12)C(=O)N[C@@H](CCCCN)C(=O)N[C@H](C(=O)N[C@@H](Cc1ccccc1)C(=O)N[C@H](C(=O)NCCCC[C@H](N)C(=O)NCC(=O)N[C@@H](CS)C(=O)N[C@@H](CCCCN)C(=O)N[C@@H](CCCCN)C(N)=O)[C@@H](C)O)[C@@H](C)O [Peptide P548, acetyl.NalD.Cpa.YWDKTFT(ε-K)GCKK.amide] (Ac-[d2Nal][Phe(4-Cl)]Y[dW]KTFT[εLys]GCKK-NH2) as the compound, how does the Ki (somatostatin receptor) read?
The Ki was 3.6 nM.

How did the IC50 [1] turn out when NCCCSC[C@@H]1NC(=O)[C@@H](Cc2ccc(O)cc2)NC(=O)CSC[C@@H](C(=O)NCC(=O)NCCCC[C@H](NC(=O)CNC(=O)[C@@H]2CSCC(=O)N[C@H](Cc3ccc(O)cc3)C(=O)N[C@@H](CSCCCN)C(=O)NCC(=O)N[C@@H](CC(=O)O)C(=O)N2)C(=O)NCC(=O)NCCCC[C@H](NC(=O)CNC(=O)[C@H](CCCCNC(=O)CNC(=O)[C@@H]2CSCC(=O)N[C@H](Cc3ccc(O)cc3)C(=O)N[C@@H](CSCCCN)C(=O)NCC(=O)N[C@@H](CC(=O)O)C(=O)N2)NC(=O)CNC(=O)[C@@H]2CSCC(=O)N[C@H](Cc3ccc(O)cc3)C(=O)N[C@@H](CSCCCN)C(=O)NCC(=O)N[C@@H](CC(=O)O)C(=O)N2)C(=O)NCCCC[C@H](N)C(=O)NCC(=O)N[C@@H](CS)C(=O)NCC(N)=O)NC(=O)[C@H](CC(=O)O)NC(=O)CNC1=O [Peptide P681, {(CH2CO.YDApc.GDCG)2KG}2K(ε-K)GCG.amide] (I: {CH2CO}-[dY]C(Propyl(3-NH2))GDCGKGK[εLys]GCG-NH2 / II: {CH2CO}-[dY]C(Propyl(3-NH2))GDCGKG / III: {CH2CO}-[dY]C(Propyl(3-NH2))GDCG / IV: {CH2CO}-[dY]C(Propyl(3-NH2))GDCG; amide I:7-IV:C, I:9-II:C, II:7-III:C (inferred); thioether I:N-I:5, II:N-II:5, III:N-III:5, IV:N-IV:5 (inferred)) was run?
The IC50 was 110 nM.

For NCCCC[C@H](NC(=O)[C@@H]1CSCC(=O)N[C@H](Cc2ccc(O)cc2)C(=O)N[C@@H](CSCCCN)C(=O)NCC(=O)N[C@@H](CC(=O)O)C(=O)N1)C(=O)NCC(=O)NCC(=O)NCCCC[C@H](NC(=O)CNC(=O)CNC(=O)[C@H](CCCCN)NC(=O)[C@@H]1CSCC(=O)N[C@H](Cc2ccc(O)cc2)C(=O)N[C@@H](CSCCCN)C(=O)NCC(=O)N[C@@H](CC(=O)O)C(=O)N1)C(=O)NCCCC[C@H](N)C(=O)NCC(=O)N[C@@H](CS)C(=O)NCCC(N)=O [Peptide P687, (CH2CO.YD.Apc.GDCKGG)2K(ε-K)GC.β-Ala.amide] (I: {CH2CO}-[dY]C(Propyl(3-NH2))GDCKGGK[εLys]GC[βAla]-NH2 / II: {CH2CO}-[dY]C(Propyl(3-NH2))GDCKGG; amide I:9-II:C (inferred); thioether I:N-I:5, II:N-II:5 (inferred)), which IC50 [1] is on record?
The IC50 was 79 nM.

For CC(=O)NCSC[C@H](NC(=O)CNC(=O)CNC(=O)[C@@H]1CSCC(=O)N[C@H](Cc2ccc(O)cc2)C(=O)N[C@@H](CSCCCN)C(=O)NCC(=O)N[C@@H](CC(=O)O)C(=O)N1)C(=O)NCC(=O)N[C@@H](CSCNC(C)=O)C(=O)NCC(=O)NCC(=O)N[C@@H](CSCC(=O)NCCCC[C@H](NC(=O)CSC[C@H](NC(=O)CNC(=O)CNC(=O)[C@H](CSCNC(C)=O)NC(=O)CNC(=O)[C@H](CSCNC(C)=O)NC(=O)CNC(=O)CNC(=O)[C@@H]1CSCC(=O)N[C@H](Cc2ccc(O)cc2)C(=O)N[C@@H](CSCCCN)C(=O)NCC(=O)N[C@@H](CC(=O)O)C(=O)N1)C(N)=O)C(=O)NCCCC[C@H](NC(=O)[C@H](CCCCNC(=O)CSC[C@H](NC(=O)CNC(=O)CNC(=O)[C@H](CSCNC(C)=O)NC(=O)CNC(=O)[C@H](CSCNC(C)=O)NC(=O)CNC(=O)CNC(=O)[C@@H]1CSCC(=O)N[C@H](Cc2ccc(O)cc2)C(=O)N[C@@H](CSCCCN)C(=O)NCC(=O)N[C@@H](CC(=O)O)C(=O)N1)C(N)=O)NC(=O)CSC[C@H](NC(=O)CNC(=O)CNC(=O)[C@H](CSCNC(C)=O)NC(=O)CNC(=O)[C@H](CSCNC(C)=O)NC(=O)CNC(=O)CNC(=O)[C@@H]1CSCC(=O)N[C@H](Cc2ccc(O)cc2)C(=O)N[C@@H](CSCCCN)C(=O)NCC(=O)N[C@@H](CC(=O)O)C(=O)N1)C(N)=O)C(=O)NCCCC[C@H](N)C(=O)NCC(=O)N[C@@H](CS)C(=O)NCC(N)=O)C(N)=O [Peptide P688, {(CH2CO.YD.Apc. GDCGGCAcmGCAcmGGCamide)2(CH2CO)2K}2.K(ε-K)GCG.amide], which IC50 [1, 6] is on record?
The IC50 was 26 nM.

For “(CH2CO.YD.Apc.GDCGGCAcmGCAcmGGC.amide)2(CH2CO)2K(ε-K)GC.amide [Peptide P667]”, which IC50 [1, 6] is on record?
The IC50 was 110 nM.

What about the “% ID/g Thrombus” value (thrombus [2]; after the final image (4h post-injection)) of the same compound?
The value was 0.006 % ID/g.

And the Thrombus/Blood (thrombus [2]; ratio)?
The Thrombus/Blood was 5.9.

And the Thrombus/Muscle (thrombus [2]; ratio)?
Its Thrombus/Muscle is 30.

What does the source list for “(CH2CO.YDApc.GDCKGCG.amide)2(CH2CO)2K(ε-K)GC.amide [Peptide P748]”?
IC50 [1, 6]: 29 nM; Thrombus/Blood (thrombus [3]): 5.8; Thrombus/Muscle (thrombus [3]): 90

“AKCGGGFDYWDKTFT.amide (AKCGGGFDYWDKTFT-NH2) [Peptide P398]” was tested. Which Ki (somatostatin receptor) did it give?
The Ki was 1.4 nM.

For GGCGLF [Peptide P477], which “Blood (% ID/g)” value [4] is on record?
The value was 0.0140 % ID/g.

And the “Control Muscle (% ID/g)” value [4]?
Its value is 0.0012 % ID/g.

And the “Infected Muscle (% ID/g)” value [4]?
The value was 0.0100 % ID/g.

And the “Ratio of Infected/Blood” value [4]?
The value was 0.72.

What about the “Ratio of Infected/Control” value [4] of the same compound?
Its value is 8.4.

With “GGCSIPPEVKFNKPFVYLI.amide (GGCSIPPEVKFNKPFVYLI-NH2) [Peptide P472]” as the compound, how does the “Blood (% ID/g)” value [4] read?
The value was 0.0076 % ID/g.

And the “Control Muscle (% ID/g)” value [4]?
Its value is 0.0009 % ID/g.

What about the “Infected Muscle (% ID/g)” value [4] of the same compound?
The value was 0.0079 % ID/g.

And the “Ratio of Infected/Blood” value [4]?
Its value is 1.0.

And the “Ratio of Infected/Control” value [4]?
Its value is 8.8.

With “cyclo(N-methyl)FYWDKV.Hcy.(CH2CO.(β-Dap)KCK.amide) [Peptide P829]” as the compound, how does the Tumor/Blood [5] read?
Its Tumor/Blood is 13.

With “cyclo(N-methyl)FYWDKV.Hcy.(CH2CO.(β-Dap)KCR.amide) [Peptide P832]” as the compound, how does the Tumor/Blood [5] read?
The Tumor/Blood was 13.

Which Tumor/Blood [5] does the source give for “cyclo(N-methyl)FYWDKV.Hcy.(CH2CO.(δ-Dap)GCK.amide) [Peptide P772]” here?
Its Tumor/Blood is 7.2.

For “cyclo(N-methyl)FYWDKV.Hcy.(CH2CO.(δ-Orn)GCK.amide) [Peptide P773]”, which “% ID/g Blood” value ([5]; 1.5 h) is on record?
Its value is 0.13 % ID/g.

And the “% ID/g Tumor” value ([5]; 1.5 h)?
Its value is 1.9 % ID/g.

And the Tumor/Blood ([5]; 1.5 h)?
The Tumor/Blood was 15.

How did the Tumor/Blood [5] turn out when “cyclo(N-methyl)FYWDKV.Hcy.(CH2CO.(ε-K)GCKK.amide) [Peptide P723]” was run?
Its Tumor/Blood is 5.4.
